In patent publication US11208403B2, “Pyridone derivatives having tetrahydropyranylmethyl groups” (DAIICHI SANKYO COMPANY, LIMITED, priority 2014, dated 2021):
Counter-ions that a name gives are not always drawn. Like-named read-outs stand apart in the source and are kept apart here.

Tests used:
NIH-3T3-Axl #7 = assay: Antitumor test, NIH-3T3-Axl #7 tumors in NOG mice (Test Example 5); type: in vivo, mouse; conditions: NIH-3T3-Axl #7 in female NOG mice, 5 continuous doses
From the text: (Test Example 5: Antitumor Test)
NIH-3T3-Axl #7 (cells prepared by the transfection of NIH3T3 cells with pLXSN retrovirus having an insert of full-length Axl cDNA) was block-transplanted into female NOG mice.

HCC827 lung cancer cells [1] = assay: In vivo effect of combined use with erlotinib-2, erlotinib-resistant HCC827 tumors (Test Example 8); parameters: species or system mouse
HCC827 lung cancer cells [2] = assay: In vivo effect of combined use with erlotinib, HCC827 subcutaneous tumors (Test Example 6); conditions: HCC827 in nude mice, 50 mg/kg bid in combination with 25 mg/kg erlotinib qd
[3] = target: T1, human MER (intracellular domain, amino acids 528-999, GST fusion) (Homo sapiens (Human), UniProt Q12866); assay: biochemical
[4] = target: T1, human MER (intracellular domain, amino acids 528-999, GST fusion); conditions: read-out: Mer kinase IC50; cell-free, ATP concentration of 1 mM
[5] = Ophthalmic histopathological examination after long-term administration (Test Example 4); type: in vivo, mouse; conditions: female NOG mice (n=8), 100 or 200 mg/kg
From the text: Preparation of dosing Solution:
4. Administration Method:
Four continuous doses, 1 drug holiday, 5 continuous doses, 2 drug holidays, 5 continuous doses, 2 drug holidays, 5 continuous doses, 2 drug holidays, and 4 continuous doses.
5. Pathological Examination
On the day following the termination date of the administration period, the mice were euthanized by blood letting under isoflurane anesthesia. Then, their eyeballs were collected, fixed in Davidson's solutions, then embedded in paraffin, and stained with hematoxylin eosin to prepare preparations, which were then histopathologically examined.

T1 sequence (Q12866 528-999): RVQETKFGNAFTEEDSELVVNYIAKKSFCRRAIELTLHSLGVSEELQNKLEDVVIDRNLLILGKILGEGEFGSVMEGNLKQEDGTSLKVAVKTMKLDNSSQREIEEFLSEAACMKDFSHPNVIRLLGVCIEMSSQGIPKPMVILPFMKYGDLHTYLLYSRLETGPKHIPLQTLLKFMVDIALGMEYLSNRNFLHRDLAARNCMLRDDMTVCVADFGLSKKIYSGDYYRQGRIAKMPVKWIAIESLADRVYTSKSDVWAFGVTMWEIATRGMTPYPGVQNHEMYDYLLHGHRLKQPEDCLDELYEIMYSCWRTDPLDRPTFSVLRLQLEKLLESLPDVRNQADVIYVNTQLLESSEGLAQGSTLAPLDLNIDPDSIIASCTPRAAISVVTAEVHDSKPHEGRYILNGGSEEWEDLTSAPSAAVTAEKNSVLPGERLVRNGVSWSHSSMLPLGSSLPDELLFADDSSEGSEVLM

With `COc1ccc(-c2cnc(N)c(-c3ccc(NC(=O)c4cn(CC(F)(F)F)cc(-c5ccc(F)cc5)c4=O)cc3)c2)cc1OC` [Compound A, reference compound] the antitumor effect (NIH-3T3-Axl #7; 4.2 mg/kg oral bid) was “distinct tumor regression effect” and the antitumor effect (NIH-3T3-Axl #7; 25 mg/kg oral bid) was “distinct tumor regression effect”.

In the case of `COc1cc(-c2cnc(N)c(-c3ccc(NC(=O)c4cn(CC5CCOCC5)cc(-c5ccc(C)cn5)c4=O)cc3F)c2)ccc1OC[C@H]1COCCO1` [Compound B sulfate hydrate], the “growth inhibition of erlotinib-resistant tumor” value (HCC827 lung cancer cells [1]; group 2: 50 mg/kg bid + 25 mg/kg erlotinib qd) is reported as “distinct growth inhibitory effect of erlotinib was confirmed”, the “estimated tumor volume of erlotinib-resistant tumor” value (HCC827 lung cancer cells [1]; group 2: 50 mg/kg bid + 25 mg/kg erlotinib qd, 116 to 140 days after transplantation) is reported as “maintained even at 140 days after transplantation” and the “growth inhibition of erlotinib-resistant tumor” value (HCC827 lung cancer cells [1]; group 3: 25 mg/kg bid + 25 mg/kg erlotinib qd) is reported as “distinct growth inhibitory effect of erlotinib was confirmed”. For the same molecule, the body weight change (HCC827 lung cancer cells [2]) was “No significant weight loss” and the “tumor size relative to start of administration (estimated tumor volume)” value (HCC827 lung cancer cells [2]) was “did not reach that at the start of administration even at Day 107”.

For `COc1ccc(-c2cnc(N)c(-c3ccc(NC(=O)c4cn(CC5CCOCC5)cc(-c5ccc(C)cc5)c4=O)cc3)c2)cc1OC` [Example 2], the IC50 [3] was 0.102 µM.

For `COc1ccc(-c2cnc(N)c(-c3ccc(NC(=O)c4cn(CC5CCOCC5)cc(-c5ccc(OC(F)(F)F)cc5)c4=O)cc3)c2)cc1OC` [Example 7], the IC50 [4] was > 4 µM.

For `Cc1ccc(-c2cn(CC3CCOCC3)cc(C(=O)Nc3ccc(-c4cc(-c5cc(C)nc(C)c5)cnc4N)nc3)c2=O)cc1` [Example 89], the IC50 [4] was > 4 µM.

For `COc1cc(-c2cnc(N)c(-c3ccc(NC(=O)c4cn(CC5CCOCC5)cc(-c5ccc(C)cc5)c4=O)cn3)c2)c(OC)nn1` [Example 96], the IC50 [4] was > 4 µM.

With `Cc1ccc(-c2cn(CC3CCOCC3)cc(C(=O)Nc3ccc(-c4cc(-c5cnn(CC6CCOCC6)c5)cnc4N)nn3)c2=O)cc1` [Example 102] the IC50 [4] was > 4 µM.

For `COc1ccc(-c2cnc(N)c(-c3ccc(NC(=O)c4cn(CC5CCOCC5)cc(-c5ccc(C)cn5)c4=O)nn3)c2)cc1OC` [Example 103], the IC50 [4] was > 4 µM.

With `COc1cc(-c2cnc(N)c(-c3ccc(NC(=O)c4cn(CC5CCOCC5)cc(-c5ccc(C)cn5)c4=O)nn3)c2)ccc1OC[C@H]1COCCO1` [Example 105] the IC50 [4] was > 4 µM.

With `COc1cc(-c2cnc(N)c(-c3ccc(NC(=O)c4cn(CC5CCOCC5)cc(-c5ccc(C)s5)c4=O)nn3)c2)ccc1OC[C@H]1COCCO1` [Example 106] the IC50 [4] was > 4 µM.

For `Cc1ccc(-c2cn(CC3CCOCC3)cc(C(=O)Nc3ccc(-c4cc(-c5cnn(C[C@H]6COCCO6)c5)cnc4N)nn3)c2=O)cc1` [Example 108], the IC50 [4] was > 4 µM.

With `Cc1ccc(-c2cn(CC3CCOCC3)cc(C(=O)Nc3ccc(-c4cc(-c5cnn(C6CCOCC6)c5)cnc4N)nn3)c2=O)cc1` [Example 109] the IC50 [4] was > 4 µM.

With `COc1cc(-c2cnc(N)c(-c3ccc(NC(=O)c4cn(CC5CCOCC5)cc(-c5ccc(C)cc5)c4=O)nn3)c2)ccc1OCCN1CCOCC1` [Example 110, N-[6-(2-Amino-5-{3-methoxy-4-[2-(morpholin-4-yl)ethoxy]phenyl}pyridin-3-yl)pyridazin-3-yl]-5-(4-methylphenyl)-4-oxo-1-(tetrahydro-2H-pyran-4-ylmethyl)-1,4-dihydropyridine-3-carboxamide] the IC50 [4] was > 4 µM.

With `COc1ccc(-c2cnc(N)c(-c3cnc(NC(=O)c4cn(CC5CCOCC5)cc(-c5ccc(C)cc5)c4=O)cn3)c2)cc1OC` [Example 112, N-{5-[2-Amino-5-(3,4-dimethoxyphenyl)pyridin-3-yl]pyrazin-2-yl}-5-(4-methylphenyl)-4-oxo-1-(tetrahydro-2H-pyran-4-ylmethyl)-1,4-dihydropyridine-3-carboxamide] the IC50 [3] was > 4 µM.

With `COc1cc(-c2cnc(N)c(-c3ccc(NC(=O)c4cn(CC5CCOCC5)cc(-c5ccc(C)cn5)c4=O)cc3F)c2)ccc1OC[C@H]1COCCO1` [Example 124] the “histological change in the retina” value [5] was “No histological change in the retinal”.

With `COc1cc(-c2cnc(N)c(-c3ccc(NC(=O)c4cn(CC5CCOCC5)cc(-c5ccc(C)cc5)c4=O)cc3)c2)ccc1OC[C@H]1COCCO1.CS(=O)(=O)O` [Example 128] the antitumor effect (NIH-3T3-Axl #7; 3.1 mg/kg oral bid) was “almost completely inhibited tumor growth”, the antitumor effect (NIH-3T3-Axl #7; 12.5 mg/kg oral bid) was “distinct tumor regression effect” and the antitumor effect (NIH-3T3-Axl #7; 50 mg/kg oral bid) was “distinct tumor regression effect”. The “histological change in the retina” value [5] was “No histological change in the retinal”.

With `COc1cc(-c2cnc(N)c(-c3ccc(NC(=O)c4cn(CC5(C#N)CCOCC5)cc(-c5ccc(F)cc5)c4=O)cc3)c2)ccc1OC[C@H]1COCCO1.CS(=O)(=O)O` [Example 129] the “histological change in the retina” value [5] was “No histological change in the retinal”.
